This note sets out measurements from patent US20100137315A1, “Sphingosine Kinase Inhibitors and Methods of Their Use” (APOGEE BIOTECHNOLOGY CORPORATION, priority 2005, published 2010).

Assay [1] deals with diverse panel of 20 purified kinases. The assay can be described thus: Kinase selectivity panel, overall statement. The format is biochemical. The following applies: 50 μM. On the procedure: (§1) A common problem with previous attempts to develop protein kinase inhibitors is the lack of selectivity toward the target kinase since the majority of these compounds interact with nucleotide-binding domains that are highly conserved among kinases. To determine if compound of this invention are non-selective kinase inhibitors, the effects of the SK inhibitor, Compound 73, on a diverse panel of 20 purified kinases was determined. The compound was tested at a single concentration of 50 μM.
The panel included both serine/threonine kinases and tyrosine kinases, as well as several that are regulated by their interaction with lipids.

In another assay the target is Ca^2+/calmodulin PK IV (Homo sapiens, UniProt Q16566). As to the kind of experiment: Kinase selectivity panel. The format is biochemical. The following applies: read-out: percent of control activity of Ca^2+/calmodulin PK IV. On the procedure: as §1
The target of the next assay is CHK1 (Homo sapiens, UniProt O14757). As to the kind of experiment: Kinase selectivity panel. The following applies: read-out: percent of control activity of CHK1. The class given is biochemical. As for the experimental part: as §1
CHK1, sequence (O14757 whole entry, species assumed): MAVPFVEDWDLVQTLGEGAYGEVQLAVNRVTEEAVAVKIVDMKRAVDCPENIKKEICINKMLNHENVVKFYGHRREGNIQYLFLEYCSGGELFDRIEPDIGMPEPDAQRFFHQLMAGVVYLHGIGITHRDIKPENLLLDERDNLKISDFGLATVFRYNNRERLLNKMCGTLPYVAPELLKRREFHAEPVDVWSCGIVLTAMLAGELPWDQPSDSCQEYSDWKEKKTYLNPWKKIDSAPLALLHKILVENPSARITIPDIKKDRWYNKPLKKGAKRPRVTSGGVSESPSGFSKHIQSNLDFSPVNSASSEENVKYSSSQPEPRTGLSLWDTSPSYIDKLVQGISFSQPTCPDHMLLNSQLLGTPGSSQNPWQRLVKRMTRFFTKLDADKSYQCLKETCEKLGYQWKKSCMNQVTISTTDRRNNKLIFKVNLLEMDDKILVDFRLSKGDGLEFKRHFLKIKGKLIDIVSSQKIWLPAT
Another assay addresses PKBα (Homo sapiens, UniProt P31749). As to the kind of experiment: Kinase selectivity panel. The class given is biochemical. Conditions: read-out: percent of control activity of PKBα. As for the experimental part:
as §1

Another assay has as its target cRaf (Homo sapiens, UniProt P04049). As to the kind of experiment: Kinase selectivity panel. Conditions: read-out: percent of control activity of cRaf. The format is biochemical. On the procedure:
as §1

For a further assay, the target named is CDK1/cyclinB (Homo sapiens, UniProt P06493). The assay can be described thus: Kinase selectivity panel. The format is biochemical. The following applies: read-out: percent of control activity of CDK1/cyclinB. On the procedure:
as §1

In the next assay the test system is human endothelial cells. As to the kind of experiment: TNFα-induced PGE2 production (Cox-2 activity), ELISA. The class given is cell-based. Conditions: 100 ng TNFα/mL, 18 hours, 10 μg/mL compound. On the procedure: (§2) FIG. 3. Inhibition of TNFα-induced Cox-2 activity by Compound 8. Rat IEC6 cells (Panel A) or human endothelial cells (Panel B) were incubated for 18 hours with dimethylsulfoxide (DMSO) as a solvent control, or 100 ng of TNFα/mL in the presence of DMSO or 10 μg/mL of Compound 8. Levels of PGE2 secreted into the medium were quantified by ELISA. Values represent the mean±sd for triplicate samples in a typical experiment.
(§3) To determine the effects of the SK inhibitors on Cox-2 activity, an ELISA assay was used to measure PGE2 production by IEC6 rat intestinal epithelial cells and human endothelial cells treated with TNFα.
In general terms: An ELISA detects its analyte on a solid surface through an enzyme-linked reagent.

Assay [2] concerns IEC6 rat intestinal epithelial cells. Described as above. The format is cell-based. Conditions: 100 ng TNFα/mL, 18 hours, 10 μg/mL compound. On the procedure:
as §2, §3

A further assay has as its system female DBA/1 mice. As to the kind of experiment: Collagen-Induced Arthritis model. The format is in vivo, mouse. Conditions: 50 mg/kg orally. On the procedure:
FIG. 10. Effects of Compound 8 on disease progression in the collagen-induced arthritis (CIA) model in mice. Female DBA/1 mice were injected with collagen, boosted after 3 weeks and then monitored for symptoms of arthritis. Upon disease manifestation, groups of mice were treated for 12 days as follows: (▴) Compound 8 (50 mg/kg given orally each day for 6 days per week); or (▪) vehicle (PEG400 given under the same schedule). On the indicated Day of treatment, the average clinical score (A) and the average hind paw diameter (B) was determined. * p<0.05 versus PEG400 alone group.
The anti-arthritis activities of the SK inhibitor Compound 8 were assessed in the Collagen-Induced Arthritis model. Female DBA/1 mice were injected subcutaneously in the tail with chicken immunization-grade type II collagen emulsified in complete Freund's adjuvant at 2 mg/mL. Three weeks later, the mice received a collagen booster in incomplete Freund's adjuvant and were monitored daily thereafter for arthritic symptoms. Once mice reached a threshold paw thickness and clinical score, they were randomized into the following treatment groups: Compound 8 (50 mg/kg given orally each day for 6 days per week) or vehicle (Polyethyleneglycol 400 given under the same schedule). The severity of disease in each animal was quantified by measurement of the hind paw volume with digital calipers. Each paw was scored based upon perceived inflammatory activity, in which each paw receives a score of 0-3 as follows: 0=normal; 1=mild, but definite redness and swelling of the ankle or wrist, or apparent redness and swelling limited to individual digits, regardless of the number of affected digits; 2=moderate redness and swelling of the ankle and wrist and 3=severe redness and swelling of the entire paw including digits, with an overall score ranging from 0-12. Differences among treatment groups were tested using ANOVA.
On Day 12, the mice were euthanized and their hind limbs were removed, stripped of skin and muscle, formalin-fixed, decalcified and paraffin-embedded. The limbs were then sectioned and stained with hematoxylin/eosin. Tibiotarsal joints were evaluated histologically for severity of inflammation and synovial hyperplasia.

Each structure is given as a SMILES string.

cRaf, sequence (P04049 whole entry, species assumed): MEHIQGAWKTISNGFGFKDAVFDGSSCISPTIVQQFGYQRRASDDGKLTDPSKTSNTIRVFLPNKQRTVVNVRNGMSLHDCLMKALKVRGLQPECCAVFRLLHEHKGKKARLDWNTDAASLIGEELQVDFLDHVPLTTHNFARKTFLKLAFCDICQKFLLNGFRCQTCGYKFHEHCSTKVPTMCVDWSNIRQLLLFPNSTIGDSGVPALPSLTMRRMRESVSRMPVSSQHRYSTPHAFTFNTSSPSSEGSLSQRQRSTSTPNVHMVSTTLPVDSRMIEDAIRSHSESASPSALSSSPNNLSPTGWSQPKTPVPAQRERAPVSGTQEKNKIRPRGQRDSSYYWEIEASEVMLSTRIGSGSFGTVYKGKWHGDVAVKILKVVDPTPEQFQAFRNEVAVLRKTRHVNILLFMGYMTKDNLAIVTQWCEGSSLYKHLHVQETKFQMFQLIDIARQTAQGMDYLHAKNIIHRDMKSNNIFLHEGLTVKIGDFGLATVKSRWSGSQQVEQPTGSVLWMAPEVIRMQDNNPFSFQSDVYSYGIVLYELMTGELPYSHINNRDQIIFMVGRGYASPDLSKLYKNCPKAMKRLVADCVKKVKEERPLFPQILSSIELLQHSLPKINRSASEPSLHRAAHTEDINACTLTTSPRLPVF
CDK1/cyclinB, sequence (P06493 whole entry, species assumed): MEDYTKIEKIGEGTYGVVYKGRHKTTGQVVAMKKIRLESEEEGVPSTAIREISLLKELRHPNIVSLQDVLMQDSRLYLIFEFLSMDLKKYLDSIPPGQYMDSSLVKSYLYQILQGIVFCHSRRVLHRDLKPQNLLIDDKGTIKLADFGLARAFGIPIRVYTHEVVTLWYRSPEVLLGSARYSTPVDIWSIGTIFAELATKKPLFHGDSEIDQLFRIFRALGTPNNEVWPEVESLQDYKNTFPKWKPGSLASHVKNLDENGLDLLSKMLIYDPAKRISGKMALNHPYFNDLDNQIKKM
CDK1/cyclinB, sequence (P14635 whole entry partner, species assumed): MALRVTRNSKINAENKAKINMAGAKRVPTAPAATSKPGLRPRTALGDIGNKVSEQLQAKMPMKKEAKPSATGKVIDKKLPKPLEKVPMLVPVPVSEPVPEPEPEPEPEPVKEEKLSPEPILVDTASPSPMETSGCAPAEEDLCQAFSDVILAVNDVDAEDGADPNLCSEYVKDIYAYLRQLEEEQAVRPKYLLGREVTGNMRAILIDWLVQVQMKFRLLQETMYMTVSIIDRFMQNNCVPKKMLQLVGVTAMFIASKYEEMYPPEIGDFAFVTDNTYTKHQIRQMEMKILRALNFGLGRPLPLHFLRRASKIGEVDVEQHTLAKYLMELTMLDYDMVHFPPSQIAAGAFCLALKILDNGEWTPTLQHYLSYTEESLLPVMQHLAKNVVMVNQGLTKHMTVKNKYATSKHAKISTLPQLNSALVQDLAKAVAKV
PKBα, sequence (P31749 whole entry, species assumed): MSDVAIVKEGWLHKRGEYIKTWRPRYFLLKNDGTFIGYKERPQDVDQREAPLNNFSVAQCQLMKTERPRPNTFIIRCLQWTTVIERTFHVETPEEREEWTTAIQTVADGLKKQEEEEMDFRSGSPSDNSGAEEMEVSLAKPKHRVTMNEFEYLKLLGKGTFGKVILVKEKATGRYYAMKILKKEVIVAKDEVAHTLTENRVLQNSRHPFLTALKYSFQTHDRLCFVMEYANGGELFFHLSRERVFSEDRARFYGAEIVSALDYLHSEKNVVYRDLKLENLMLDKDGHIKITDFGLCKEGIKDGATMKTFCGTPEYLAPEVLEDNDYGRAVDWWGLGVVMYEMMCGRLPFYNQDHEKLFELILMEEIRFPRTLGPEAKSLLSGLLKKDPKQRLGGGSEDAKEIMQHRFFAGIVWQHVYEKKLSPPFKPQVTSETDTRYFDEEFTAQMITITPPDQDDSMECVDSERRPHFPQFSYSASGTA

For the compound `Clc1ccc(-c2csc(NCc3ccccc3)n2)cc1` [Compound 73, Benzyl-[4-(4-chloro-phenyl)-thiazol-2-yl]-amine], the “inhibition of the 20 kinases of the panel” value in [1] is listed as “none of the 20 diverse kinases tested were significantly inhibited”. The remaining activity at 50 µM at Ca^2+/calmodulin PK IV came out at 113 ± 3%; at CHK1 it was 124%; at PKBα, 102 ± 1%; on cRaf, 104 ± 1%; on CDK1/cyclinB it was 100%.
Take `CCCC(=O)Oc1ccc(C=CC(=O)Nc2nc(-c3ccc(Cl)cc3)cs2)cc1OC` [Compound 8, Butyric acid 4-{2-[4-(4-chloro-phenyl)-thiazol-2-ylcarbamoyl]-vinyl}-2-methoxy-phenyl ester]: the “TNFα-induced Cox-2 activity (PGE2 production)” value (with human endothelial cells; in [2]) was “strongly suppressed” throughout. In addition, the “reduction in clinical score vs vehicle” value in the assay with female DBA/1 mice (6 days per week, Day 12) was 65%. Further, the “reduction in the increase in hind paw thickness vs vehicle” value with female DBA/1 mice (6 days per week, Day 12) is listed as 72%. Also, in the assay on female DBA/1 mice (Day 12), the “histologic damage of tibiotarsal joints” value is recorded as “significantly reduced”. Also, the “inflammation response (Average Clinical Score, Average Hind Paw Diameter)” value with female DBA/1 mice (significant decreases beginning at Day 4) is recorded as “dramatically slowed”.
